The structures appear in SMILES notation. The source made the active and inactive calls. No rule for the calls is given here. Bounds are passed on as bounds.

The nature of this assay: non-covalent RecA intein splicing inhibitors, dose response, biochemical, cell-free, fluorescence, secondary screen (AID 449750).
A word on the AC50: it is the midpoint of the concentration-response curve, whichever way the signal moves. For the compound `CC(Oc1ccc(F)cc1)C(=O)Oc1ccc(N(C)S(=O)(=O)c2ccccc2)cc1` (configuration not stated), the AC50 was > 38 µM (inactive).

With `Cc1c(Cl)cccc1NC(=S)/C(=C(\[O-])c1ccc(Cl)s1)[n+]1ccccc1`, the AC50 is > 38 µM (inactive).

For `CC(OC(=O)c1cc(O)c2ccccc2c1O)C(=O)Nc1ccc(C(N)=O)cc1` (configuration not stated), the half-maximal activity concentration (AC50) was 10.1 µM.

Regarding `CN(Cc1ccc(Cl)s1)C(=O)CCl`, the concentration at half-maximal activity (AC50) is 19.3 µM.

Consider `Cn1cnc([N+](=O)[O-])c1S(=O)(=O)c1cccc(Cl)c1`, for which the concentration at half-maximal activity (AC50) was 30 µM.

Consider `CCn1c(-c2ccccc2)c(C(=O)CCl)c2ccccc21`, for which the AC50 was 6.01 µM.

Regarding `CCn1c(Cl)c(C=O)s/c1=N\S(=O)(=O)c1ccccc1`, the AC50 was 2.44 µM.

As for `O=C1NC(c2ccc(-c3ccccc3[N+](=O)[O-])o2)C(C(=O)c2ccc(F)cc2)C(O)(C(F)(F)F)N1` (configuration not stated), the AC50 is 34.4 µM.

As for `COc1ccc(N(C(=O)c2ccco2)S(=O)(=O)c2cccs2)cc1`, the AC50 was > 38 µM (inactive).

`C/C(CC(=O)Nc1cc(C)ccn1)=N\NC(=O)COc1cccc(C)c1`: the AC50 was 11.1 µM.

As to `Cc1ccc(NC(=O)COc2cccc(/C=C3\SC(=S)N(CCC(=O)O)C3=O)c2)cc1Cl`, the concentration at half-maximal activity (AC50) was 10.2 µM.

On to `CC(C)N(c1ccccc1)c1ccc(NC(=O)CCl)cc1`, for which the AC50 was 1.45 µM.

`CC1(C)Cc2ccccc2C2=NNC(=O)C2=N1`: the AC50 is 11 µM.

With `CCCCCCCCCC[N+](C)(C)CC/C=C1/c2ccccc2Sc2ccc(Cl)cc21`, the half-maximal activity concentration (AC50) is 5.09 µM.

As for `CCCc1nnc(NC(=O)c2nc(S(=O)(=O)Cc3cccc(C)c3)ncc2Cl)s1`, the AC50 is > 38 µM (inactive).

Turning to `Cn1nc(C(C)(C)C)cc1C(=O)Sc1cccc(Br)c1`, the AC50 is > 38 µM (inactive).

On to `CCOc1cc(CNc2ccc3cn[nH]c3c2)ccc1OC`, for which the AC50 was 12.7 µM.

Take `CSc1nnc(NC(=O)c2nc(S(=O)(=O)Cc3cccc(C)c3)ncc2Cl)s1`: the AC50 was > 38 µM (inactive).

Consider `CCOc1ccccc1Nc1nnc(Cc2ccccc2Cl)c(=O)[nH]1`, for which the AC50 was > 38 µM (inactive).

For `CC(=O)c1c(C)nc(-c2ccc(Cl)cc2)nc1N=CN(C)C`, the AC50 was > 38 µM (inactive).

Regarding `N#Cc1cc([N+](=O)[O-])ccc1NC(=O)COC(=O)CCC1CCCCC1`, the concentration at half-maximal activity (AC50) was 15.1 µM.

Turning to `Cc1[nH][nH]c(=O)c1[C@@H](c1ccccc1[N+](=O)[O-])C(C#N)C#N`, the AC50 is > 38 µM (inactive).

With `CC1=NN(c2cccc(Cl)c2)C(=O)C12CC(C)=C(C)CS2` (configuration not stated), the half-maximal activity concentration (AC50) was 21.7 µM.

`Cc1cc(C(=O)c2ccccc2)c(NC(=O)CCl)s1`: the concentration at half-maximal activity (AC50) is 7.09 µM.

For the compound `CCCSc1nnc(Sc2nnnn2-c2ccccc2)s1`, the half-maximal activity concentration (AC50) is 14.2 µM.

In the case of `CC1(CC(=O)N/N=C/c2ccc(OCc3ccc(Cl)cc3Cl)cc2)OCCCO1`, the AC50 was 11.2 µM.

As to `CCCNC(=O)c1nnsc1S(=O)c1ccc(Cl)cc1` (configuration not stated), the half-maximal activity concentration (AC50) was 32.9 µM.

For the compound `COC(=O)COc1c(Cl)cc(C(c2c(C)[nH][nH]c2=O)c2c(C)[nH][nH]c2=O)cc1OC`, the AC50 was 27.8 µM.

Regarding `COc1ccc(/C=C2/C(=O)N(c3ccccc3)N=C2C)c(OC)c1`, the AC50 was 18.5 µM.

On to `O=C(CCl)Oc1ccc2occ(C(=O)c3cccs3)c2c1`, for which the AC50 is > 38 µM (inactive).

For the compound `Cc1cc(-c2[nH]nc3c2C(c2ccc(Cl)cc2)C(C#N)=C(N)O3)c(C)s1` (configuration not stated), the concentration at half-maximal activity (AC50) was 15.2 µM.

With `COc1ccc(CNc2ccc3cn[nH]c3c2)c(OC)c1OC`, the AC50 was 14 µM.

Turning to `CCc1ccc(N2C(=O)C(Cl)=C(N3CCOCC3)C2=O)cc1`, the AC50 is > 38 µM (inactive).

Regarding `c1ccc(C2[C@H]3CN(Cc4cccnc4)[C@H](c4ccccc4)C34CC2(c2cccnc2)C4)cc1` (some centres not stated), the AC50 is 10.7 µM.

For `Cc1cc(C)c(S(=O)(=O)Nc2cc(SCC(=O)O)c(O)c3ccccc23)cc1C`, the AC50 was 2.58 µM.

For `O=C1/C(=C/c2ccc3c(c2)OCO3)CCC/C1=C\c1ccc2c(c1)OCO2`, the AC50 is > 38 µM (inactive).

Turning to `CCOc1ccc2c(c1)C(NC(C)=O)C(=O)N2CCN1CCOCC1` (configuration not stated), the concentration at half-maximal activity (AC50) was 34.2 µM.

Consider `COc1cc(N=Nc2cccc(S(N)(=O)=O)c2)c2ccccc2c1N`, for which the AC50 was 34.1 µM.

As for `COc1cc(C(c2c(C)[nH][nH]c2=O)c2c(C)[nH][nH]c2=O)cc(Cl)c1O`, the AC50 is 2.2 µM.

`COc1ccc(C(=O)/C(=C/c2cccs2)c2nc3ccccc3o2)cc1`: the AC50 is > 38 µM (inactive).

Turning to `O=C(CCl)Nc1cn(-c2ccccc2)nc1-c1ccccc1`, the AC50 is 7.77 µM.

As for `COc1cccc(-c2[nH]nc3c2C(c2ccsc2)C(C#N)=C(N)O3)c1` (configuration not stated), the AC50 was 5.11 µM.

For `CCCCOP(=O)(OCCCC)C1(NS(=O)(=O)c2ccccc2)C=CC(=O)c2ccccc21` (configuration not stated), the AC50 is 9.07 µM.

For the compound `CCOc1cc(/C=C2/C(=O)N(c3ccccc3)N=C2C)ccc1OC(=O)c1ccco1`, the concentration at half-maximal activity (AC50) was 3.17 µM.

Take `COc1cccc(NC2=C(Cl)C(=O)OC2OC(=O)c2ccco2)c1` (configuration not stated): the AC50 was > 38 µM (inactive).

For `O=c1cc(-c2ccccc2)[nH][nH]1`, the AC50 is 12.8 µM.

Regarding `CN(CCC#N)C(=O)Cn1nc(Cc2ccncc2)c2ccccc2c1=O`, the AC50 is > 38 µM (inactive).

Regarding `Cc1ccc(-c2[nH]nc3c2C(C)C(C#N)=C(N)O3)cc1` (configuration not stated), the AC50 is > 38 µM (inactive).

For `COc1cccc(CN2CCN(Cc3ccc(C#CC(C)(C)O)s3)CC2CCO)c1` (configuration not stated), the AC50 is > 38 µM (inactive).

Regarding `CCOc1cc(/C=N\NC(=O)OC(C)(C)C)ccc1OC(=O)c1ccco1`, the AC50 was > 38 µM (inactive).

Take `Cc1ccccc1N1C(=O)C(Cl)=C(N2CCOCC2)C1=O`: the AC50 was > 38 µM (inactive).

On to `COc1ccc(-c2nnc(SC(=O)N3c4ccccc4Sc4ccccc43)o2)cc1`, for which the AC50 is 4.86 µM.

Regarding `CCN(CC)CCNC(=O)c1ccc2c(c1NCCO)C(=O)c1ccccc1C2=O`, the AC50 was 13.1 µM.

On to `COc1ccccc1N1C(=O)Cc2ccccc2C1=O`, for which the AC50 is > 38 µM (inactive).

`COc1cccc(-n2nc(C#N)c(Cl)cc2=O)c1`: the AC50 was > 38 µM (inactive).

As for `CCCC(=O)N(C1CC(C)C(C#N)(C#N)C1(C#N)C#N)N(C)C` (configuration not stated), the AC50 is > 38 µM (inactive).

Take `Cn1c2ccccc2c2cc(C(=O)NNC(=O)CCl)sc21`: the AC50 was 16.2 µM.

As to `O=C(c1ccco1)N1CCN(c2nc(C3CC3)nc3sc4c(c23)CCCC4)CC1`, the half-maximal activity concentration (AC50) was 12.7 µM.

As to `O=C(O)c1ccc2c3c(ncnc13)-c1ccccc1C2=O`, the concentration at half-maximal activity (AC50) was 7.47 µM.

Regarding `CN1c2ccc(C=O)c3c(C=O)ccc(c23)N(C)C1(C)C`, the AC50 was > 38 µM (inactive).

On to `CS(=O)(=O)C1=NN2C(=N)/C(=C\c3ccc(OC(=O)c4ccco4)cc3)C(=O)N=C2S1`, for which the AC50 was > 38 µM (inactive).

Consider `COc1ccc(/C=C/C(=O)c2ccc(O)cc2)cc1COc1ccc(F)cc1`, for which the AC50 is > 38 µM (inactive).

For the compound `CCOc1cc(C(c2c(C)[nH][nH]c2=O)c2c(C)[nH][nH]c2=O)ccc1OS(=O)(=O)c1ccc(C)cc1`, the AC50 is 4.78 µM.

For `COc1ccc(C(N)c2nccc3cc(OC)c(OC)cc23)cc1OC` (configuration not stated), the AC50 is > 38 µM (inactive).

Regarding `CC1=NN(c2ccccc2)C(=O)C1/C=C1\C(=O)NC(=O)N(c2ccc(C)c(C)c2)C1=O` (configuration not stated), the concentration at half-maximal activity (AC50) was 26.1 µM.

Take `CC1=NN(c2cccc(Cl)c2)C(=O)C1`: the AC50 was 34.3 µM.

In the case of `Cc1ccc2c(c1)c1c3n2CCN(C(=O)CCl)C3CCC1` (configuration not stated), the half-maximal activity concentration (AC50) is 3.29 µM.

These data come from PubChem BioAssay AID449750 (Broad Institute, 2010).
